Source: PubChem BioAssay AID1259407 (Chemical Carcinogenesis Research Information System (CCRIS), 2018)
Entries after “also recorded” stand apart in the source; their conditions may differ. Calls of active or inactive are those of the source. How the calls were made is not given here.

Test system: CCRIS mutagenicity, Ames/micronucleus/aberration tests
Experiment: CCRIS mutagenicity studies
[1] = Test System: AMES SALMONELLA TYPHIMURIUM, Strain/Indicator: TA98, Metabolic Activation: NONE, Method: STANDARD PLATE
[2] = Test System: AMES SALMONELLA TYPHIMURIUM, Strain/Indicator: TA98, Metabolic Activation: RAT, LIVER, S-9, PCB, Method: PREINCUBATION
[3] = Test System: AMES SALMONELLA TYPHIMURIUM, Strain/Indicator: TA100, Metabolic Activation: NONE, Method: STANDARD PLATE
[4] = Test System: AMES SALMONELLA TYPHIMURIUM, Strain/Indicator: TA100, Metabolic Activation: RAT, LIVER, S-9, PCB, Method: PREINCUBATION
[5] = Test System: AMES SALMONELLA TYPHIMURIUM, Strain/Indicator: TA98, Metabolic Activation: NONE, Method: PREINCUBATION

With `Nc1ccc(Oc2ccc(N)cc2)cc1` the mutagenic call (End Point: IN VITRO CHROMOSOMAL ABERRATIONS, Test System: CHL CELLS, Metabolic Activation: NONE) was “active; positive (structural changes); precipitation occurred at 1.3 and 5.0 mg/ml; also recorded: active; positive (structural changes); precipitation occurred at 1.7 and 5.0 mg/ml”, the mutagenic call (End Point: IN VITRO CHROMOSOMAL ABERRATIONS, Test System: CHL CELLS, Metabolic Activation: RAT, LIVER, S-9, SODIUM PHENOBARBITAL AND 5,6-BENZOFLAVONE) was “active; positive (structural changes); precipitation occurred at 1.7 mg/ml” and the mutagenic call (End Point: IN VITRO CHROMOSOMAL ABERRATIONS, Test System: CHO CELLS, Metabolic Activation: RAT, LIVER, S-9, AROCLOR 1254) was “active; positive; precipitation occurred at 1600 and 5000 ug/ml; also recorded: active; positive; precipitation occurred at 2000, 3000, 4000 and 5000 ug/ml”. For the same compound, the mutagenic call (Test System: AMES SALMONELLA TYPHIMURIUM, Strain/Indicator: TA97, Metabolic Activation: HAMSTER, LIVER, S-9, AROCLOR 1254 (10%), Method: PREINCUBATION) was “active; positive”, the mutagenic call (Test System: AMES SALMONELLA TYPHIMURIUM, Strain/Indicator: TA97, Metabolic Activation: NONE, Method: PREINCUBATION) was “inactive; negative” and the mutagenic call (Test System: AMES SALMONELLA TYPHIMURIUM, Strain/Indicator: TA97, Metabolic Activation: RAT, LIVER, S-9, AROCLOR 1254 (10%), Method: PREINCUBATION) was “active; positive”. For the same compound, the mutagenic call (Test System: AMES SALMONELLA TYPHIMURIUM, Strain/Indicator: TA98, Metabolic Activation: HAMSTER, LIVER, S-9, AROCLOR 1254 (10%), Method: PREINCUBATION) was “active; positive”, the mutagenic call (Test System: AMES SALMONELLA TYPHIMURIUM, Strain/Indicator: TA98, Metabolic Activation: NONE, Method: FLUCTUATION (MICROTITER)) was “inactive; negative” and the mutagenic call [1] was “inactive; negative”. The mutagenic call (Test System: AMES SALMONELLA TYPHIMURIUM, Strain/Indicator: TA98, Metabolic Activation: RAT LIVER S-9, PHENOBARBITAL AND BETA-NAPHTHOFLAVONE, Method: PREINCUBATION) was “active; positive”, the mutagenic call (Test System: AMES SALMONELLA TYPHIMURIUM, Strain/Indicator: TA98, Metabolic Activation: RAT, LIVER, S-9, AROCLOR 1254 (10%), Method: PREINCUBATION) was “active; positive” and the mutagenic call [2] was “active; positive”. For the same compound, the mutagenic call (Test System: AMES SALMONELLA TYPHIMURIUM, Strain/Indicator: TA98, Metabolic Activation: RAT, LIVER, S-9, PCB, Method: STANDARD PLATE) was “active; positive”, the mutagenic call (Test System: AMES SALMONELLA TYPHIMURIUM, Strain/Indicator: TA100, Metabolic Activation: HAMSTER, LIVER, S-9, AROCLOR 1254 (10%), Method: PREINCUBATION) was “active; positive” and the mutagenic call [3] was “inactive; negative”. For the same compound, the mutagenic call (Test System: AMES SALMONELLA TYPHIMURIUM, Strain/Indicator: TA100, Metabolic Activation: RAT LIVER S-9, PHENOBARBITAL AND BETA-NAPHTHOFLAVONE, Method: PREINCUBATION) was “active; positive”, the mutagenic call (Test System: AMES SALMONELLA TYPHIMURIUM, Strain/Indicator: TA100, Metabolic Activation: RAT, LIVER, S-9, AROCLOR 1254 (10%), Method: PREINCUBATION) was “active; positive” and the mutagenic call [4] was “active; positive”. For the same compound, the mutagenic call (Test System: AMES SALMONELLA TYPHIMURIUM, Strain/Indicator: TA100, Metabolic Activation: RAT, LIVER, S-9, PCB, Method: STANDARD PLATE) was “active; positive”, the mutagenic call (Test System: AMES SALMONELLA TYPHIMURIUM, Strain/Indicator: TA1535, Metabolic Activation: HAMSTER, LIVER, S-9, AROCLOR 1254 (10%), Method: PREINCUBATION) was “active; positive” and the mutagenic call (Test System: AMES SALMONELLA TYPHIMURIUM, Strain/Indicator: TA1535, Metabolic Activation: NONE, Method: PREINCUBATION) was “inactive; negative”. The mutagenic call (Test System: AMES SALMONELLA TYPHIMURIUM, Strain/Indicator: TA1535, Metabolic Activation: RAT LIVER S-9, PHENOBARBITAL AND BETA-NAPHTHOFLAVONE, Method: PREINCUBATION) was “inactive; negative”, the mutagenic call (Test System: AMES SALMONELLA TYPHIMURIUM, Strain/Indicator: TA1535, Metabolic Activation: RAT, LIVER, S-9, AROCLOR 1254 (10%), Method: PREINCUBATION) was “inactive; negative” and the mutagenic call (Test System: AMES SALMONELLA TYPHIMURIUM, Strain/Indicator: TA1537, Metabolic Activation: HAMSTER, LIVER, S-9, AROCLOR 1254 (10%), Method: PREINCUBATION) was “active; positive”. The mutagenic call (Test System: AMES SALMONELLA TYPHIMURIUM, Strain/Indicator: TA1537, Metabolic Activation: NONE, Method: FLUCTUATION (MICROTITER)) was “inactive; negative”, the mutagenic call (Test System: AMES SALMONELLA TYPHIMURIUM, Strain/Indicator: TA1537, Metabolic Activation: NONE, Method: PREINCUBATION) was “inactive; negative” and the mutagenic call (Test System: AMES SALMONELLA TYPHIMURIUM, Strain/Indicator: TA1537, Metabolic Activation: RAT LIVER S-9, PHENOBARBITAL AND BETA-NAPHTHOFLAVONE, Method: PREINCUBATION) was “inactive; negative”. The mutagenic call (Test System: AMES SALMONELLA TYPHIMURIUM, Strain/Indicator: TA1537, Metabolic Activation: RAT, LIVER, S-9, AROCLOR 1254 (10%), Method: PREINCUBATION) was “inactive; negative”, the mutagenic call (Test System: AMES SALMONELLA TYPHIMURIUM, Strain/Indicator: TA7001, Metabolic Activation: NONE, Method: FLUCTUATION (MICROTITER)) was “inactive; negative” and the mutagenic call (Test System: AMES SALMONELLA TYPHIMURIUM, Strain/Indicator: TA7002, Metabolic Activation: NONE, Method: FLUCTUATION (MICROTITER)) was “inactive; negative”. For the same compound, the mutagenic call (Test System: AMES SALMONELLA TYPHIMURIUM, Strain/Indicator: TA7003, Metabolic Activation: NONE, Method: FLUCTUATION (MICROTITER)) was “inactive; negative”, the mutagenic call (Test System: AMES SALMONELLA TYPHIMURIUM, Strain/Indicator: TA7004, Metabolic Activation: NONE, Method: FLUCTUATION (MICROTITER)) was “inactive; negative” and the mutagenic call (Test System: AMES SALMONELLA TYPHIMURIUM, Strain/Indicator: TA7005, Metabolic Activation: NONE, Method: FLUCTUATION (MICROTITER)) was “active; positive”. For the same compound, the mutagenic call (Test System: AMES SALMONELLA TYPHIMURIUM, Strain/Indicator: TA7006, Metabolic Activation: NONE, Method: FLUCTUATION (MICROTITER)) was “inactive; negative”, the mutagenic call (Test System: E.COLI, Strain/Indicator: WP2UVRA, Metabolic Activation: NONE, Method: PREINCUBATION) was “inactive; negative” and the mutagenic call (Test System: E.COLI, Strain/Indicator: WP2UVRA, Metabolic Activation: RAT LIVER S-9, PHENOBARBITAL AND BETA-NAPHTHOFLAVONE, Method: PREINCUBATION) was “inactive; negative”.
In the case of `Cc1ccc(C)c2c1ccc1ccccc12`, the mutagenic call [1] is reported as “inactive; negative”, the mutagenic call (Test System: AMES SALMONELLA TYPHIMURIUM, Strain/Indicator: TA98, Metabolic Activation: RAT, LIVER, S-9, AROCLOR 1254, Method: STANDARD PLATE) is reported as “active; positive” and the mutagenic call [3] is reported as “inactive; negative”. For the same compound, the mutagenic call (Test System: AMES SALMONELLA TYPHIMURIUM, Strain/Indicator: TA100, Metabolic Activation: RAT, LIVER, S-9, AROCLOR 1254, Method: STANDARD PLATE) was “active; positive”.
With `Cc1ccc(NC2OC[C@@H](O)[C@@H](O)[C@@H]2O)cc1` (stereo not given in full) the mutagenic call (Test System: AMES SALMONELLA TYPHIMURIUM, Strain/Indicator: TA100, Metabolic Activation: NONE, Method: LIQUID INCUBATION) was “active; positive”.
For `CC(C)(C)CNC(=O)C=Cc1ccc([N+](=O)[O-])o1`, the mutagenic call [5] was “active; positive”.
For `CCN(CC)CCCN`, the mutagenic call [5] was “inactive; negative”, the mutagenic call [2] was “inactive; negative” and the mutagenic call (Test System: AMES SALMONELLA TYPHIMURIUM, Strain/Indicator: TA100, Metabolic Activation: NONE, Method: PREINCUBATION) was “inactive; negative”. For the same compound, the mutagenic call [4] was “inactive; negative”.
With `COCCN(CCOC)c1cc(NC(C)=O)c(-n2nc3c(Br)cc(N)c(Cl)c3n2)cc1OC` the mutagenic call (Test System: AMES SALMONELLA TYPHIMURIUM, Strain/Indicator: TA98, Metabolic Activation: RAT LIVER S-9, AROCLOR 1254, Method: STANDARD PLATE) was “active; positive”, the mutagenic call (Test System: AMES SALMONELLA TYPHIMURIUM, Strain/Indicator: TA100, Metabolic Activation: RAT LIVER S-9, AROCLOR 1254, Method: STANDARD PLATE) was “active; positive” and the mutagenic call (Test System: AMES SALMONELLA TYPHIMURIUM, Strain/Indicator: TA104, Metabolic Activation: RAT LIVER S-9, AROCLOR 1254, Method: STANDARD PLATE) was “active; positive”. The mutagenic call (Test System: AMES SALMONELLA TYPHIMURIUM, Strain/Indicator: YG1024, Metabolic Activation: RAT LIVER S-9, PHENOBARBITAL, 5,6-BENZOFLAVONE (10%), Method: PREINCUBATION) was “active; positive”.
